Test [1] addresses Calcium/calmodulin-dependent protein kinase type 1B (Homo sapiens, UniProt Q6P2M8). Description: Selectivity interaction (KinomeScan (DiscoverX)) EUB0000746a PNCK. Particulars: at 1 µM.
Test [2] addresses T1, Mitogen-activated protein kinase 12 (Homo sapiens) (UniProt P53778).
T1 sequence (whole entry): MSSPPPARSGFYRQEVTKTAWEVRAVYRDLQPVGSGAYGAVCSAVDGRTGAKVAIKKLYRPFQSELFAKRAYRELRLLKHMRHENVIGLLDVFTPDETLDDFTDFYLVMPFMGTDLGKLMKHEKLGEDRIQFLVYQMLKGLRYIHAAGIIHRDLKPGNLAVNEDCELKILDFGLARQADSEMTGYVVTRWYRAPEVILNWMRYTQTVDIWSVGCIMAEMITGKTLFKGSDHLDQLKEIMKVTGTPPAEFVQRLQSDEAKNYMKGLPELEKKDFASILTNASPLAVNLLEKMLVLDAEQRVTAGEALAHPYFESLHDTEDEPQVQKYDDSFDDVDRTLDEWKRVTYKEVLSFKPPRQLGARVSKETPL
Description: Selectivity interaction (KinomeScan (DiscoverX)) EUB0000746a MAPK12. The note with it: at 1 µM.

The target in test [3] is Phosphatidylinositol 4,5-bisphosphate 3-kinase catalytic subunit alpha isoform (Homo sapiens, UniProt P42336). Put plainly: Selectivity interaction (KinomeScan (DiscoverX)) EUB0000746a PIK3CA. The note with it: at 1 µM.
Phosphatidylinositol 4,5-bisphosphate 3-kinase catalytic subunit alpha isoform, sequence (P42336 whole entry, canonical isoform): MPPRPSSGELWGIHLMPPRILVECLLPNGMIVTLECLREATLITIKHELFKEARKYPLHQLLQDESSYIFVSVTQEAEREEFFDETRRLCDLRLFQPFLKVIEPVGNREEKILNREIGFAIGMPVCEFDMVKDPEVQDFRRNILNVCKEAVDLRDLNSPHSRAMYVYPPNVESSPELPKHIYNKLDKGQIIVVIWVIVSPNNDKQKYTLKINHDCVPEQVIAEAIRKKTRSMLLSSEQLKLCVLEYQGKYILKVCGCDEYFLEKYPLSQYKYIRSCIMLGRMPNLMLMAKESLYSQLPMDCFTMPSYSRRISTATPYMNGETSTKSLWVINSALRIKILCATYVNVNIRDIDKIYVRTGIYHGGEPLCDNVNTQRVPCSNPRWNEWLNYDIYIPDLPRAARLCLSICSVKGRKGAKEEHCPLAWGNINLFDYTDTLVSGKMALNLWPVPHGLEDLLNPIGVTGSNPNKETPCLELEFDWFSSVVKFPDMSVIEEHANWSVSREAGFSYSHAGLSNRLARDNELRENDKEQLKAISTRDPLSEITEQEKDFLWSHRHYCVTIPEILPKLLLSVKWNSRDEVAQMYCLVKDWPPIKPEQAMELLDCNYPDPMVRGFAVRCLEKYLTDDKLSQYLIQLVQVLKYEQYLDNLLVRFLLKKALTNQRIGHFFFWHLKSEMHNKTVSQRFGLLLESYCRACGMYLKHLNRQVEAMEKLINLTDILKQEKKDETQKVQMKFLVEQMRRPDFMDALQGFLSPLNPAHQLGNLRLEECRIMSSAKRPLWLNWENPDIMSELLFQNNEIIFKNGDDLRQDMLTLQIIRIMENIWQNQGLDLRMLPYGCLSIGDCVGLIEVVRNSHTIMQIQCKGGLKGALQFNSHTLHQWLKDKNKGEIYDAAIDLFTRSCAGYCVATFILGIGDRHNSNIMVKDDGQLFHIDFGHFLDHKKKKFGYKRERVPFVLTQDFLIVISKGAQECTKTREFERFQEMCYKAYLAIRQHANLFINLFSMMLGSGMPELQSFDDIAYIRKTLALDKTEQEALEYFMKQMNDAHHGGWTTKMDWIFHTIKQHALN
Test [4] addresses T2, Alpha-1D adrenergic receptor (Homo sapiens, UniProt P25100).
T2 sequence (P25100 whole entry): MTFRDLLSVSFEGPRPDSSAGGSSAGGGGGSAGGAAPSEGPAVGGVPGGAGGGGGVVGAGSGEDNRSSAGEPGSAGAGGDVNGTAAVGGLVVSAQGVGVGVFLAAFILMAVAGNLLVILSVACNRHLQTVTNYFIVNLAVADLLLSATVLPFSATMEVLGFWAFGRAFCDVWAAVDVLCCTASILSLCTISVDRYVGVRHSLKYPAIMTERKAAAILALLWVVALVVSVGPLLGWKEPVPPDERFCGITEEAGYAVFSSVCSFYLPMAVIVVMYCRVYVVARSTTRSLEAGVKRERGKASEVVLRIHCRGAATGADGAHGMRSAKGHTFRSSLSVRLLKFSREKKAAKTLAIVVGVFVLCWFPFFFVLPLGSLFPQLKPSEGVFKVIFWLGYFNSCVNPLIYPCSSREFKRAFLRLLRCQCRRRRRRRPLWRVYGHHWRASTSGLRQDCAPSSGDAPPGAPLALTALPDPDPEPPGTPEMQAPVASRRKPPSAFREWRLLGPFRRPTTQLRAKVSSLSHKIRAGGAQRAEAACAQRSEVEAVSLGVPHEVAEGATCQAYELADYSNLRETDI
Put plainly: Selectivity interaction (GPCR panel (PDSP screen)) EUB0000746a ADRA1D.

In test [5] the target is D(3) dopamine receptor (Homo sapiens, UniProt P35462). Description: Selectivity interaction (GPCR panel (PDSP screen)) EUB0000746a DRD3.
D(3) dopamine receptor, sequence (P35462 whole entry): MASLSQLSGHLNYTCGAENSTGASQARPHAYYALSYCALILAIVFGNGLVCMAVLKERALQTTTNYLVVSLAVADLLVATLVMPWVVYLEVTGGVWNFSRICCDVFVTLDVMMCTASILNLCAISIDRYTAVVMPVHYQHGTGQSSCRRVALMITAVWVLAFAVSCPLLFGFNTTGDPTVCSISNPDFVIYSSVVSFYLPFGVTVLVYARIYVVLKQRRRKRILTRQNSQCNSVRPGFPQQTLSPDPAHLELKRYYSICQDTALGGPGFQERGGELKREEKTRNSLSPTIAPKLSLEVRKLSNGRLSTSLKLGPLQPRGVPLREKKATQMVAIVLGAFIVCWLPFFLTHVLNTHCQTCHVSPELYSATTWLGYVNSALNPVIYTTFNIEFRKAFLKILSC

The source of these data is ChEMBL document CHEMBL5212743, “Selectivity Literature for EUbOPEN Chemogenomics Library wave 3” (2023).

Bounds are passed on as bounds.

By Ki is commonly meant a dissociation constant, usually derived from enzyme kinetics or from competition with a known ligand. Higher therefore signals a looser hold on the target.

Calcium/calmodulin-dependent protein kinase type 1B, sequence (Q6P2M8 whole entry): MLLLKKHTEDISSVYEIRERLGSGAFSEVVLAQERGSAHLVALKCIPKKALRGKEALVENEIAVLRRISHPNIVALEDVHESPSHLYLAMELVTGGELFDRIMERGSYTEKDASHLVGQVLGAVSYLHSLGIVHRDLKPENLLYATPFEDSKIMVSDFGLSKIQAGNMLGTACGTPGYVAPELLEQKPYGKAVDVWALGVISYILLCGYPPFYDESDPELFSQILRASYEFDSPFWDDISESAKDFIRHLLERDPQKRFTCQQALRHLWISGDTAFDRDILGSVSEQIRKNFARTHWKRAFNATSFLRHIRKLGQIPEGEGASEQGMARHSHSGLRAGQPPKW

As for `O=C(NS(=O)(=O)c1ccc(NCC2CCOCC2)c([N+](=O)[O-])c1)c1ccc(N2CCN(Cc3ccc(C(F)(F)F)cc3-c3ccc(Cl)cc3)CC2)cc1Oc1cnc2[nH]ccc2c1` [A-1210227], the % of control is 0% in test [1], 50% in test [2] and 50% in test [3]. For the same molecule, the Ki in test [4] and in test [5] was > 10 µM in each case.
